Measurements reported in patent publication EP2966448B1, “METHOD FOR THE PREDICTION OR PROGNOSIS OF THE RESPONSE OF A HUMAN SUBJECT SUFFERING FROM CANCER TO TREATMENT WITH AN ANTAGONIST OF THE NK1 RECEPTOR” (priority 2013, dated 2014).
Like-named read-outs stand apart in the source and are kept apart here.

Legend:
[1] = system: Thyroid carcinoma (papillary type); assay: Inhibition of primary tumor cell cultures (48 hours) vs NK1 receptor immunostaining (Example 1); type: cell-based; details: Homo sapiens, 1 micromolar, read-out: Percentage of inhibition of cell cultures
Procedure: (§1) Cell cultures. To obtain tumor cells from human primary tumors we used the method described in De Bari et al. (De Bari et al. 2001). Briefly, small pieces of the tumors were digested into a hyaluronidase solution (Sigma-Aldrich, USA) at a concentration of 1 mg/ml during 15 minutes at 37°C, and then they were treated with 6 mg/ml of collagenase type IV (Invitrogen) during 2 hours at 37°C. Consecutively, cells were washed, and resuspended in the DMEM culture medium with high concentration of glucose (Dulbecco's Modified Eagle's Medium, Invitrogen) supplemented with 1% of antibiotics-antimycotics (Invitrogen) and with 1% of sodium pyruvate (Invitrogen), and the cells were seeded in culture slides at a concentration of 10.000 cells per square centimeter. When cells reached confluence, the adherent cells were separated using sterile trypsin at 0,5% (Invitrogen) and they were used among passages 3 and 9. For the assays shown next, tumor cells were seeded on slides at a concentration of 25.000 cells per well. A total of 6 wells containing the tumor cells were used as survival control. […] All the cultures were kept during 48 hours and later on recollected for their analysis.
(§2) Immunohistochemistry techniques. The presence of NK1 receptors was also analyzed using immunohistochemistry techniques. Briefly, a sample of each of the cultures of the cell lines used in the present invention, was centrifuged (5 minutes at 1.500 rpm) and the pellet obtained was dehydrated using increasing concentrations of ethanol and, finally, xylol. Then, said dehydrated samples were embedded in paraffin, creating a block of cells. Such paraffin blocks were cut with a microtome at 5 microns thickness, and were placed on microscope slides adequate to perform immunohistochemistry techniques. Consecutively, they were de-paraffinized by immersing them in xylol, to be finally hydrated using a solution containing decreasing concentrations of ethanol, and finally submerged them into water. […] After this, the samples were left to cool down at room temperature for 10 minutes. The endogenous peroxidase activity was blocked with 3% peroxide of hydrogen for 30 minutes at room temperature. After washing the samples with 0.05 M of Tris buffer, they were incubated with 10% non-immune pork serum at for 30 minutes at room temperature. To analyze the expression of NK1 receptors, the cellular samples were incubated in the presence of anti-NK1 antibodies (S8305, Sigma-Aldrich) diluted 1:1000, overnight at 4°C. Afterwards, the samples were washed in Tris buffer 0.05 M at room temperature. The next step was the addition of Envision System-HRP (Dako) reagents for 30 minutes at room temperature. Then, the samples were washed again in Tris buffer 0.05 M and the immunoreactivity was visualized through light microscopy with a chromogenic solution containing 3,3'-Diaminobenzidine (DAB+; Dako, USA). To differentiate the cell nuclei, they were slightly stained with hematoxylin. As negative control, it was used samples not incubated with the primary antibody anti-NK1, which was replaced by non-immune serum. All the samples were evaluated.
(§3) To value the immunostaining in each of the cases six cuts were performed to be analyzed by the immunohistochemistry technique. In each of the six cuts, it was counted cells in 20 fields (magnification 400x) using an Olympus microscope (model CX31). In each field it was counted the total number of cells and the number of cells presenting immunostaining, calculating afterwards the percentage of cells which presented immunostaining.

Endometrium carcinoma = assay: Inhibition of primary tumor cell cultures vs Kras mutation (Example 2); type: cell-based, human; details: Endometrium carcinoma, 100 micromolar
Procedure: (§4) Cell cultures. […] Briefly, small pieces of the tumors were digested into a hyaluronidase solution (Sigma-Aldrich, USA) at a concentration of 1 mg/ml during 15 minutes at 37°C, and then they were treated with 6 mg/ml of collagenase type IV (Invitrogen) during 2 hours at 37°C. Consecutively, cells were washed, and resuspended in the DMEM culture medium with high concentration of glucose (Dulbecco's Modified Eagle's Medium, Invitrogen) supplemented with 1% of antibiotics-antimycotics (Invitrogen) and with 1% of sodium pyruvate (Invitrogen), and the cells were seeded in culture slides at a concentration of 10.000 cells per square centimeter. When cells reached confluence, the adherent cells were separated using sterile trypsin at 0,5% (Invitrogen) and they were used among passages 3 and 9. For the assays shown next, tumor cells were seeded on slides at a concentration of 25.000 cells per well. A total of 6 wells containing the tumor cells were used as survival control. […] All the cultures were kept during 48 hours and later on recollected for their analysis.
(§5) In each case the presence or not of mutations in K-ras gene was determined.
(§6) To determine the existence of mutations in the K-ras gene DNA from cancer tumor cells was extracted from samples obtained from the different cancer tumor cells, using DNA extraction kits from Takara (Madison, WI, US) or Ambion (Huntingdon, Cambridgeshire, United Kingdom), following the manufacturer's instructions, and as it has been previously published (Di Fiore F, et al. 2007). Consecutively it was analyzed by sequencing the exon 2 of the KRAS gene, , by means of PCR amplification from previously extracted cancer tumor DNA, using the following sense primer (SEQ ID NO. 15): 5'-[sequence]-3' and anti-sense primer (SEQ ID NO. 16): 5'-[sequence]-3'. After the purification using the Qiagen extraction kit, the PCR products were sequenced using the Big Dye Terminator Kit V3.1 (Applied Biosystems, Foster City, CA, U.S.) and an ABI Prism 377 or 3100 DNA sequencer (Applied Biosystems). The presence of a heterozygous mutation in the KRAS gene in cancer tumor cells of the cultures was defined as the appearance of a mutant peak of a height of at least a third of the wild type. All the sequence analysis were executed at least twice in two independent PCR.
(§7) The antibody against NK1 receptor (Table 16) was used at 1/50 concentration. The percentages of inhibition are expressed in percentage of variation in relation to control ± standard deviation.

[2] = system: Urinary bladder carcinoma (transitional cell carcinoma); assay: as above; type: cell-based, human; details: Urinary bladder carcinoma (transitional cell carcinoma), 100 micromolar
Procedure: (§8) To obtain tumor cells from human primary tumors we used the method described in De Bari et al. (De Bari et al. 2001). Briefly, small pieces of the tumors were digested into a hyaluronidase solution (Sigma-Aldrich, USA) at a concentration of 1 mg/ml during 15 minutes at 37°C, and then they were treated with 6 mg/ml of collagenase type IV (Invitrogen) during 2 hours at 37°C. Consecutively, cells were washed, and resuspended in the DMEM culture medium with high concentration of glucose (Dulbecco's Modified Eagle's Medium, Invitrogen) supplemented with 1% of antibiotics-antimycotics (Invitrogen) and with 1% of sodium pyruvate (Invitrogen), and the cells were seeded in culture slides at a concentration of 10.000 cells per square centimeter. When cells reached confluence, the adherent cells were separated using sterile trypsin at 0,5% (Invitrogen) and they were used among passages 3 and 9. For the assays shown next, tumor cells were seeded on slides at a concentration of 25.000 cells per well. A total of 6 wells containing the tumor cells were used as survival control. […] All the cultures were kept during 48 hours and later on recollected for their analysis.
as §5, §6, §7

Breast carcinoma = assay: Inhibition of primary tumor cell cultures (48 hours) vs NK1 receptor immunostaining (Example 1); type: cell-based; details: Homo sapiens, 1 micromolar, read-out: Percentage of inhibition of cell cultures
Procedure: as §1, §2, §3

[3] = system: Thyroid carcinoma (follicular carcinoma); assay: Inhibition of primary tumor cell cultures vs Kras mutation (Example 2); type: cell-based, human; details: Thyroid carcinoma (follicular carcinoma), 100 micromolar
Procedure: as §8, §5, §6, §7

[4] = system: human primary tumor cells; assay: Inhibition of primary tumor cell cultures vs absence or presence of AKT protein (Example 4; tumor type per table line); type: cell-based; details: cancer cell cultures showing more presence of AKT, compared; non-peptidic antagonists 100 micromolar, antibody 1/50
Procedure: as §4
Afterwards, the cells were cultured in presence of several antagonists of the NK1 receptor.
In each case it was determined the presence or absence of the AKT protein effector downstream in the PI3 Kinases pathway.
To determine the presence of the AKT protein in the different cultures Western Blot technique was performed (following the description in example 1-Western Blot section), but using as primary antibody with reference: Akt (pan) (11E7) Rabbit mAb (4685, Cell Signalling).
The antibody against NK1 receptor (Table 26) was used at 1/50 concentration. The percentages of inhibition are expressed in percentage of variation in relation to control ± standard deviation.

[5] = system: Non Hodgkin Lymphoma T (diffuse T cell lymphoma); assay: Inhibition of primary tumor cell cultures vs Kras mutation (Example 2); type: cell-based, human; details: Non Hodgkin Lymphoma T (diffuse T cell lymphoma), 100 micromolar
Procedure: as §1, §5, §6
The percentages of inhibition are expressed in percentage of variation in relation to control ± standard deviation.

[6] = system: Lung carcinoma (small cell type); assay: Inhibition of primary tumor cell cultures (48 hours) vs NK1 receptor immunostaining (Example 1); type: cell-based; details: Homo sapiens, 1 micromolar, read-out: Percentage of inhibition of cell cultures
Procedure: as §1, §2, §3

Glioma = assay: as above; type: cell-based; details: Homo sapiens, 1 micromolar, read-out: Percentage of inhibition of cell cultures
Procedure: as §1, §2, §3

Myeloma = assay: as above; type: cell-based; details: Homo sapiens, 1 micromolar, read-out: Percentage of inhibition of cell cultures
Procedure: as §1, §2, §3

[7] = system: Lung carcinoma (non small cell lung carcinoma); assay: Inhibition of primary tumor cell cultures vs Kras mutation (Example 2); type: cell-based, human; details: Lung carcinoma (non small cell lung carcinoma), 100 micromolar
Procedure: as §8, §5, §6, §7

Neuroblastoma = assay: Inhibition of primary tumor cell cultures (48 hours) vs NK1 receptor immunostaining (Example 1); type: cell-based; details: Homo sapiens, 1 micromolar, read-out: Percentage of inhibition of cell cultures
Procedure: as §1, §2, §3

Leukemia B = assay: as above; type: cell-based; details: Homo sapiens, 1 micromolar, read-out: Percentage of inhibition of cell cultures
Procedure: as §1, §2, §3

Ewing Sarcoma = assay: as above; type: cell-based; details: Homo sapiens, 1 micromolar, read-out: Percentage of inhibition of cell cultures
Procedure: as §1, §2, §3

Non Hodgkin Lymphoma T = assay: as above; type: cell-based; details: Homo sapiens, 1 micromolar, read-out: Percentage of inhibition of cell cultures
Procedure: as §1, §2, §3

[8] = NK1 receptor immunostaining Intensity grade 1
[9] = NK1 receptor immunostaining Intensity grade 2
[10] = NK1 receptor immunostaining Intensity grade 3
[11] = Cases with Kras non-mutated (wild type)
[12] = NK1 receptor immunostaining Group 1 (less than 20% of the cells)
[13] = NK1 receptor immunostaining Group 2 (20-80% of the cells)
[14] = NK1 receptor immunostaining Group 3 (more than 80% of the cells)

Cc1cc(F)ccc1[C@H]1CNCCN1C(=O)N(C)[C@H](C)c1cc(C(F)(F)F)cc(C(F)(F)F)c1 [Vestipitant]
inhibition at 1 µM [1, 8]: 16 ± 2%
inhibition at 1 µM [1, 9]: 47 ± 5%
inhibition at 1 µM [1, 10]: 96 ± 5%
Percentage of inhibition of cell cultures (Endometrium carcinoma; Cases with Kras mutated): 24±6 percentage
Percentage of inhibition of cell cultures (Endometrium carcinoma; [11]): 95±4 percentage
Percentage of inhibition of cell cultures ([2]; Cases with Kras mutated): 25±5 percentage
Percentage of inhibition of cell cultures [2, 11]: 95±6 percentage
inhibition at 1 µM (Breast carcinoma; [12]): 12 ± 3%
inhibition at 1 µM (Breast carcinoma; [13]): 46 ± 3%
inhibition at 1 µM (Breast carcinoma; [14]): 93 ± 4%
inhibition at 1 µM (Breast carcinoma; [8]): 19 ± 4%
inhibition at 1 µM (Breast carcinoma; [9]): 45 ± 3%
inhibition at 1 µM (Breast carcinoma; [10]): 93 ± 3%
Percentage of inhibition of cell cultures ([3]; Cases with Kras mutated): 25±3 percentage
Percentage of inhibition of cell cultures [3, 11]: 97±4 percentage
inhibition of cell proliferation [4]: higher inhibition
Percentage of inhibition of cell cultures ([5]; Cases with Kras mutated): 25±5 percentage
Percentage of inhibition of cell cultures [5, 11]: 96±5 percentage
inhibition at 1 µM [6, 12]: 16 ± 3%
inhibition at 1 µM [6, 13]: 46 ± 3%
inhibition at 1 µM [6, 14]: 93 ± 3%
inhibition at 1 µM [6, 8]: 18 ± 3%
inhibition at 1 µM [6, 9]: 45 ± 3%
inhibition at 1 µM [6, 10]: 93 ± 3%
inhibition at 1 µM (Glioma; [12]): 15 ± 4%
inhibition at 1 µM (Glioma; [13]): 45 ± 4%
inhibition at 1 µM (Glioma; [14]): 92 ± 4%
inhibition at 1 µM (Glioma; [8]): 19 ± 3%
inhibition at 1 µM (Glioma; [9]): 48 ± 5%
inhibition at 1 µM (Glioma; [10]): 92 ± 3%
inhibition at 1 µM (Myeloma; [12]): 15 ± 2%
inhibition at 1 µM (Myeloma; [13]): 45 ± 4%
inhibition at 1 µM (Myeloma; [14]): 93 ± 6%
inhibition at 1 µM (Myeloma; [8]): 17 ± 2%
inhibition at 1 µM (Myeloma; [9]): 47 ± 4%
inhibition at 1 µM (Myeloma; [10]): 93 ± 5%
Percentage of inhibition of cell cultures ([7]; Cases with Kras mutated): 24±5 percentage
Percentage of inhibition of cell cultures [7, 11]: 96±6 percentage
inhibition at 1 µM (Neuroblastoma; [12]): 17 ± 2%
inhibition at 1 µM (Neuroblastoma; [13]): 46 ± 3%
inhibition at 1 µM (Neuroblastoma; [14]): 93 ± 3%
inhibition at 1 µM (Neuroblastoma; [8]): 16 ± 1%
inhibition at 1 µM (Neuroblastoma; [9]): 49 ± 5%
inhibition at 1 µM (Neuroblastoma; [10]): 93 ± 4%
inhibition at 1 µM (Leukemia B; [12]): 16 ± 5%
inhibition at 1 µM (Leukemia B; [13]): 47 ± 5%
inhibition at 1 µM (Leukemia B; [14]): 92 ± 5%
inhibition at 1 µM (Leukemia B; [8]): 17 ± 2%
inhibition at 1 µM (Leukemia B; [9]): 47 ± 3%
inhibition at 1 µM (Leukemia B; [10]): 92 ± 4%
inhibition at 1 µM (Ewing Sarcoma; [12]): 16 ± 3%
inhibition at 1 µM (Ewing Sarcoma; [13]): 46 ± 4%
inhibition at 1 µM (Ewing Sarcoma; [14]): 90 ± 6%
inhibition at 1 µM (Ewing Sarcoma; [8]): 16 ± 4%
inhibition at 1 µM (Ewing Sarcoma; [9]): 47 ± 3%
inhibition at 1 µM (Ewing Sarcoma; [10]): 90 ± 6%
inhibition at 1 µM (Non Hodgkin Lymphoma T; [12]): 13 ± 4%
inhibition at 1 µM (Non Hodgkin Lymphoma T; [13]): 46 ± 4%
inhibition at 1 µM (Non Hodgkin Lymphoma T; [14]): 93 ± 6%
inhibition at 1 µM (Non Hodgkin Lymphoma T; [8]): 17 ± 2%
inhibition at 1 µM (Non Hodgkin Lymphoma T; [9]): 48 ± 4%
inhibition at 1 µM (Non Hodgkin Lymphoma T; [10]): 93 ± 5%
